{"source": "patent US6165984A", "about": "“Naringin and naringenin as inhibitors of acyl CoA-cholesterol-o-acyltransferase” (Korea Institute of Science & Technology, priority 1997, dated 2000)", "key": {"[1]": {"tested_on": "creatin kinase in the liver", "settings": "in vivo; cited from earlier work"}, "[2]": {"assay": "Blood total cholesterol and triglyceride in cholesterol-fed rabbits (Example 6)", "assay_type": "in vivo, New Zealand White rabbit", "settings": "1% cholesterol diet, 6 weeks, 1 mg/kg Lovastatin, 0.1% naringin or naringenin", "method": "Blood samples were taken from the rats of the three dietary groups and plasma HDL fractions were separated therefrom by using HDL-cholesterol reagent (Sigma Chemical Co., Cat. No. 352-3) containing dextran-sulfate. Total cholesterol and HDL-cholesterol levels were determined by using Sigma Diagnostic Kit Cat. No. 352-100(Sigma Chemical Co., […] et al., Clin. Chem., 20, 470-475(1974)). Neutral lipid level was determined by using Sigma Diagnostic Kit Cat. No. 339-50(Bucolo, G. and David, H., Clin. Chem., 19, 476-482(1973)). The result is shown in Table III, wherein the total plasma cholesterol levels in naringin and naringenin-fed rat groups decreased by 32% and 18%, respectively, as compared with that of the control group. […] RC4 diet comprises 7.6% moisture, 22.8% crude protein, 2.8% crude fat, 8.8% crude ash, 14.4% crude cellulose and 43.6% soluble nitrogen-free substances. The rabbits were bred for 6 weeks while being allowed free access to the diets and water. Further, blood samples were taken from the rabbits and total cholesterol and triglyceride levels were determined in accordance with the same procedure in Example 4."}, "hepatic cells": {"tested_on": "hepatic cells", "settings": "rabbits, 1% cholesterol diet, six weeks; 1 mg/kg Lovastatin, 0.1% naringin", "method": "The same procedure as in (Step 1) was repeated except that 30 three-month old New Zealand White rabbits (Yeonam Horticulture and Animal Husbandry College, Korea) each weighing about 2.5 to 2.6 kg were used in place of the rats, and the rabbits were fed for six weeks with three different diets, i.e., RC4 diet containing 1% cholesterol (Control group); 1% cholesterol plus 1 mg/kg Lovastatin® (Comparative group); and 1% cholesterol plus 0.1% naringin, respectively.\nThereafter, the livers were separated from the rabbits and the histopathological observations were carried out as follows.\nThe rabbits were anesthetized with an intramuscular injection of ketamine (75 mg/kg) and subjected to an abdominal incision. […] The fixed liver was washed sufficiently with water, dehydrated stepwise with 70%, 80%, 90% and 100% ethanol and, then, embedded in paraffin. The embedded liver was sectioned in 4 μm thickness with a microtome and stained with hematoxylin and eosin. The stained liver specimen was made transparent with xylene, mounted with permount, and then observed under a microscope to confirm the presence of lesions."}, "[3]": {"tested_on": "macrophage-lipid complex on the arterial endothelium", "assay": "Fatty streak analysis: macrophage-lipid complex on main artery of cholesterol-fed rabbits (Example 6)", "assay_type": "in vivo, New Zealand White rabbit", "settings": "1 mg/kg Lovastatin", "source_text": "RC4 diet comprises 7.6% moisture, 22.8% crude protein, 2.8% crude fat, 8.8% crude ash, 14.4% crude cellulose and 43.6% soluble nitrogen-free substances. The rabbits were bred for 6 weeks while being allowed free access to the diets and water. The rabbits bred in (Step 1) were sacrificed and their chest were incised. The main artery was cut out therefrom in a length of about 5 cm downward from the site 1 cm above the aortic valve and the fat surrounding the main artery was removed. The main artery was incised in the middle along the longitudinal axis and pinned to a dish. The moist artery was photographed and, then, staining of fatty streak was carried out in accordance with the method of […]., et al. (J. Lab. Clin. […] A part of the incised main artery was washed three times by 2 min. with anhydrous propylene glycol and stained for 30 min. with a saturated solution of Oil Red O (ORO, Sigma Co.) dissolved in propylene glycol. Thereafter, the artery was washed twice by 3 min. with 85% propylene glycol to remove remaining staining solution and, then washed with physical saline. The artery was photographed and the photograph was traced. The area of stained region (fatty streak region) was determined with an image analyzer (LEICA, Q-600, Germany) and its proportion (%) to the total arterial area was calculated. On the other hand, the other part of the main artery was stained in accordance with hematoxylin-eosin (H&E) and Masson's trichrome staining methods and observed under a microscope to confirm whether the macrophage-lipid complexes were accumulated in the intima, internus, elastic lamina and media."}}}
{"smiles": "CC[C@H](C)C(=O)O[C@H]1C[C@@H](C)C=C2C=C[C@H](C)[C@H](CC[C@@H]3C[C@@H](O)CC(=O)O3)[C@H]21", "note": "[Lovastatin, reference compound]", "values": [{"measurement": "adverse side effect", "setting": "[1]", "result": "increasing creatin kinase in the liver"}, {"measurement": "Triglyceride", "setting": "[2]; control 56", "result": 66, "unit": "mg/dL"}, {"measurement": "Total cholesterol", "setting": "[2]; control 1143", "result": 1210, "unit": "mg/dL"}, {"measurement": "microscopic features of the liver (FIGS. 2A-2C)", "setting": "hepatic cells", "result": "irregularly arranged and enlarged and a large amount of fat is deposited therein"}, {"measurement": "layer of macrophage-lipid complex on the arterial endothelium (FIGS. 1A-1C)", "setting": "[3]; 0.1% naringin, control: thick layer", "result": "no or very thin layers of macrophage-lipid complex"}, {"measurement": "area of macrophage-lipid complex accumulated on the arterial endothelium, compared to control group", "setting": "[3]; 1% cholesterol diet, 6 weeks, 0.1% naringin or naringenin", "result": "decreased significantly"}, {"measurement": "M-L (macrophage-lipid) complex area", "setting": "[3]; proportion of total arterial area, 1% cholesterol diet, 6 weeks, 0.1% naringin or naringenin, control 35", "result": 5, "unit": "%"}]}
